Results taken from ChEMBL document CHEMBL5370528, “Synthesis-accessibility-oriented design of c-Jun N-terminal kinase 1 inhibitor” (Eur J Med Chem, 2023).
Active and inactive are the calls of the source. The rule behind the calls is not given here.

What was measured:
[1] = Cmax in Sprague-Dawley rat at 5 mg/kg, iv by HPLC-UV analysis; format: ADME, organism-based; parameters: dose 5 mg/kg, route iv; conditions: in vivo
[2] = target: Mitogen-activated protein kinase 1 (Homo sapiens) (UniProt P28482); assay: Inhibition of ERK2 (unknown origin) at 1 uM preincubated for 10 mins followed by substrate addition and measured after 60 mins in the presence of ATP by ADP-Glo reagent based luminescence assay relative to control; conditions: time 70.0 min
Chain of Mitogen-activated protein kinase 1 (Homo sapiens) (P28482 whole entry): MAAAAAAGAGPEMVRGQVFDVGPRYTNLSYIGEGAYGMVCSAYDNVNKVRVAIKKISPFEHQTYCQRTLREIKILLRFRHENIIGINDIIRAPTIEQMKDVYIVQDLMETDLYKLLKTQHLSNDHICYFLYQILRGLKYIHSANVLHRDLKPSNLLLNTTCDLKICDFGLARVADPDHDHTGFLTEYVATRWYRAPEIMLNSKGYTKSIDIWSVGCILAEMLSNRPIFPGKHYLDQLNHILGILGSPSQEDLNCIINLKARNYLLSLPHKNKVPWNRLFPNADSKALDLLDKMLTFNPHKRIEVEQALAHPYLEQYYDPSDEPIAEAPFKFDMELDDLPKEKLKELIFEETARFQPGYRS

[3] = test system: Mus musculus; assay: Anti-fibrotic activity in bleomycin-induced C57BL/6 mouse model of pulmonary fibrosis assessed as alleviation of body weight loss at 25 to 75 mg/kg, po administered twice a day for 3 weeks; format: functional, organism-based; conditions: dose 25-75 mg/kg
[4] = Apparent volume of distribution in Sprague-Dawley rat at 75 mg/kg, po by HPLC-UV analysis; format: ADME, organism-based; conditions: in vivo
[5] = target: CDK6/cyclin D1 (Homo sapiens) (UniProt P24385+Q00534); assay: Inhibition of CDK6/Cyclin D1 (unknown origin) at 1 uM preincubated for 10 mins followed by substrate addition and measured after 60 mins in the presence of ATP by ADP-Glo reagent based luminescence assay; format: protein-complex assay; conditions: time 70.0 min
[6] = MRT(0 to infinity) in Sprague-Dawley rat at 5 mg/kg, iv by HPLC-UV analysis; format: ADME, organism-based; conditions: in vivo
[7] = target: Mitogen-activated protein kinase 8 (Homo sapiens, UniProt P45983); assay: Inhibition of N-terminal GST-tagged recombinant full length human JNK1 expressed in baculovirus infected Sf9 insect cells using IPTTPITTTYFFFKKK as substrate at 0.1 uM incubated for 60 mins in the presence of ATP by ADP-Glo reagent based luminescence assay relative to control
Chain of Mitogen-activated protein kinase 8 (P45983 whole entry): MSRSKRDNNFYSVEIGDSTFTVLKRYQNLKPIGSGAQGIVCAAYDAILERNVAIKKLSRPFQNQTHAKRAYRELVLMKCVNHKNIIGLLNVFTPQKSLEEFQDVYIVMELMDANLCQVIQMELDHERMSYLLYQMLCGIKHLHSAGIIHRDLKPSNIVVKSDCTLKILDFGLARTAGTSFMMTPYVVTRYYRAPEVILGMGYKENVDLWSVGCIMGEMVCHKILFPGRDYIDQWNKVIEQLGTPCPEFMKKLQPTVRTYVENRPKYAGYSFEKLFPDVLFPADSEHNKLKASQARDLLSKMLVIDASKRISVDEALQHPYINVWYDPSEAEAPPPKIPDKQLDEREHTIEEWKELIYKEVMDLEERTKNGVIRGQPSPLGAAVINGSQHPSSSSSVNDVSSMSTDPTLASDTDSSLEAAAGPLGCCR

[8] = target: c-Jun N-terminal kinase, JNK (Homo sapiens) (UniProt P45983+P53779+P45984); assay: Inhibition of JNK in human NCI-H1299 cells assessed as inhibition of anisomycin-activated c-Jun phosphorylation preincubated for 1 hrs followed by anisomycin activation for 1 hrs by Western blot analysis; format: cell-based; conditions: dose 2-50 µM, time 2.0 hrs
[9] = target: T1, Mitogen-activated protein kinase 10 (Homo sapiens, UniProt P53779); assay: Inhibition of N-terminal GST-tagged recombinant full length human JNK3 expressed in baculovirus infected Sf9 cells using IPTTPITTTYFFFKKK as substrate incubated for 60 mins in the presence of ATP by ADP-Glo reagent based luminescence assay
T1 sequence (P53779 whole entry): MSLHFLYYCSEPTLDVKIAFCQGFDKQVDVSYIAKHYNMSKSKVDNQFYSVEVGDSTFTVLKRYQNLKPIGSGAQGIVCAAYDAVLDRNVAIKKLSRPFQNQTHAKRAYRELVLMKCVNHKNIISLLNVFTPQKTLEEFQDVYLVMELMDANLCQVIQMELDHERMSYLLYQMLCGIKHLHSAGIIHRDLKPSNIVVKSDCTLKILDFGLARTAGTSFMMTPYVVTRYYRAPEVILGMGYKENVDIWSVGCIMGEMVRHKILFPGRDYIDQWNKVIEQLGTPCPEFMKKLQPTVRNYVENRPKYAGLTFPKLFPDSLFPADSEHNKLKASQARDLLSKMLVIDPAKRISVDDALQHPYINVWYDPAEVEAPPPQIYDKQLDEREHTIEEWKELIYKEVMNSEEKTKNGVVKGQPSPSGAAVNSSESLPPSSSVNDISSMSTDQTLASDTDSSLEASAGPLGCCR

[10] = test system: Mus musculus; assay: Anti-fibrotic activity in bleomycin-induced C57BL/6 mouse model of pulmonary fibrosis assessed as reduction in alveolar space collapse at 25 to 75 mg/kg, po administered twice a day for 3 weeks by Masson's trichome staining based analysis; format: functional, organism-based; conditions: dose 25-75 mg/kg
[11] = target: CDK2/Cyclin A2 (Homo sapiens) (UniProt P24941+P20248); assay: Inhibition of CDK2/Cyclin A2 (unknown origin) at 1 uM preincubated for 10 mins followed by substrate addition and measured after 60 mins in the presence of ATP by ADP-Glo reagent based luminescence assay relative to control; format: protein-complex assay; conditions: time 70.0 min
[12] = Half-life in Sprague-Dawley rat at 75 mg/kg, po by HPLC-UV analysis; format: ADME, organism-based; conditions: in vivo
[13] = target: T2, Mitogen-activated protein kinase 9 (Homo sapiens, UniProt P45984); assay: Inhibition of N-terminal GST-tagged recombinant full length human JNK2 expressed in baculovirus infected Sf9 cells using IPTTPITTTYFFFKKK as substrate incubated for 60 mins in the presence of ATP by ADP-Glo reagent based luminescence assay
Target sequence in this assay (P45984 whole entry): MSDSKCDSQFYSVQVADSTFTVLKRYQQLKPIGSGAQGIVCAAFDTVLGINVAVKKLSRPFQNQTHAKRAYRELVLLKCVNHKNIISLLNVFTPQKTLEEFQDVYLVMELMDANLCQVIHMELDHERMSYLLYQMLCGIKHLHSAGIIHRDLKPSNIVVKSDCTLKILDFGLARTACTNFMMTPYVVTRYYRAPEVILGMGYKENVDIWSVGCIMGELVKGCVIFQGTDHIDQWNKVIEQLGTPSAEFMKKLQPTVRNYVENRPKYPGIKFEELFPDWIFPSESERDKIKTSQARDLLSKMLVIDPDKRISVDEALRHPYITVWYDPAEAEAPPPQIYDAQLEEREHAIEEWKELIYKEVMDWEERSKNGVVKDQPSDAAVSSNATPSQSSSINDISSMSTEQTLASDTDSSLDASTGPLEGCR

[14] = test system: Mus musculus; assay: Anti-fibrotic activity in bleomycin-induced C57BL/6 mouse model of pulmonary fibrosis assessed as alleviation of alveolar wall thickening in lungs at 25 to 75 mg/kg, po administered twice a day for 3 weeks by H&E staining based analysis; format: functional, organism-based; conditions: dose 25-75 mg/kg
[15] = target: Cyclin-dependent kinase 2/cyclin E1 (Homo sapiens) (UniProt P24864+P24941); assay: Inhibition of CDK2/Cyclin E1 (unknown origin) at 1 uM preincubated for 10 mins followed by substrate addition and measured after 60 mins in the presence of ATP by ADP-Glo reagent based luminescence assay relative to control; format: protein-complex assay; conditions: time 70.0 min
[16] = target: T2, Mitogen-activated protein kinase 9; assay: Inhibition of N-terminal GST-tagged recombinant full length human JNK2 expressed in baculovirus infected Sf9 cells using IPTTPITTTYFFFKKK as substrate at 1 uM incubated for 60 mins in the presence of ATP by ADP-Glo reagent based luminescence assay relative to control
Target sequence in this assay (P45984 whole entry, looked up): as the sequence (P45984 whole entry) above

[17] = Tmax in Sprague-Dawley rat at 75 mg/kg, po by HPLC-UV analysis; format: ADME, organism-based; conditions: in vivo
[18] = Apparent volume of distribution in Sprague-Dawley rat at 5 mg/kg, iv by HPLC-UV analysis; format: ADME, organism-based; conditions: in vivo, read-out: Vz
[19] = target: Dual specificity mitogen-activated protein kinase kinase 2 (Homo sapiens) (UniProt P36507); assay: Inhibition of MAP2K2 (unknown origin) at 1 uM preincubated for 10 mins followed by substrate addition and measured after 60 mins in the presence of ATP by ADP-Glo reagent based luminescence assay relative to control; conditions: time 70.0 min
Chain of Dual specificity mitogen-activated protein kinase kinase 2 (Homo sapiens) (P36507 whole entry): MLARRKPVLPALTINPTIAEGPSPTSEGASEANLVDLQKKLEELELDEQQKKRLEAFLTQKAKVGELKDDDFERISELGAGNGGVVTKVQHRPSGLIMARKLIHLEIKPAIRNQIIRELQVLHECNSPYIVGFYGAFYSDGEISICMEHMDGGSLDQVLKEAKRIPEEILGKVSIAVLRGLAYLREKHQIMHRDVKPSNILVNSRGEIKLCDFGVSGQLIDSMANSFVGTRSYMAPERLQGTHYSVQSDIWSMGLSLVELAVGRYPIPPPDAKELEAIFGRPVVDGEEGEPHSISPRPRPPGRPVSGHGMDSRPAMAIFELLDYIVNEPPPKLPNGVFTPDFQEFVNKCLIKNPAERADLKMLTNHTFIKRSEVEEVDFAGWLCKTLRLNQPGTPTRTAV

[20] = target: T1, Mitogen-activated protein kinase 10; assay: Inhibition of N-terminal GST-tagged recombinant full length human JNK3 expressed in baculovirus infected Sf9 cells using IPTTPITTTYFFFKKK as substrate at 1 uM incubated for 60 mins in the presence of ATP by ADP-Glo reagent based luminescence assay relative to control
[21] = target: T3, Dual specificity mitogen-activated protein kinase kinase 4 (Homo sapiens) (UniProt P45985); assay: Inhibition of MAP2K4 (unknown origin) at 1 uM preincubated for 10 mins followed by substrate addition and measured after 60 mins in the presence of ATP by ADP-Glo reagent based luminescence assay relative to control; conditions: time 70.0 min
T3 sequence (whole entry): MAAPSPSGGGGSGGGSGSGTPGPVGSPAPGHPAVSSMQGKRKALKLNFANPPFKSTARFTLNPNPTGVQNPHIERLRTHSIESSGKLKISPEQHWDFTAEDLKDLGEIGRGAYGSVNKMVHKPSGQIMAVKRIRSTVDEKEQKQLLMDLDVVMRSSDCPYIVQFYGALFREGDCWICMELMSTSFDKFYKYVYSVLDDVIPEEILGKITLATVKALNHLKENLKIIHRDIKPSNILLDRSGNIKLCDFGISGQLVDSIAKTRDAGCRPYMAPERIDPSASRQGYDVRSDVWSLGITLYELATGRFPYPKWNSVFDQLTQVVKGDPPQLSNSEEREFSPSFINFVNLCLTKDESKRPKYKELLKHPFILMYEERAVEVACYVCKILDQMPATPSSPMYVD

[22] = Half-life in Sprague-Dawley rat at 5 mg/kg, iv by HPLC-UV analysis; format: ADME, organism-based; conditions: in vivo
[23] = target: Dual specificity mitogen-activated protein kinase kinase 1 (Homo sapiens) (UniProt Q02750); assay: Inhibition of MAP2K1 (unknown origin) at 1 uM preincubated for 10 mins followed by substrate addition and measured after 60 mins in the presence of ATP by ADP-Glo reagent based luminescence assay relative to control; conditions: time 70.0 min
Chain of Dual specificity mitogen-activated protein kinase kinase 1 (Homo sapiens) (Q02750 whole entry): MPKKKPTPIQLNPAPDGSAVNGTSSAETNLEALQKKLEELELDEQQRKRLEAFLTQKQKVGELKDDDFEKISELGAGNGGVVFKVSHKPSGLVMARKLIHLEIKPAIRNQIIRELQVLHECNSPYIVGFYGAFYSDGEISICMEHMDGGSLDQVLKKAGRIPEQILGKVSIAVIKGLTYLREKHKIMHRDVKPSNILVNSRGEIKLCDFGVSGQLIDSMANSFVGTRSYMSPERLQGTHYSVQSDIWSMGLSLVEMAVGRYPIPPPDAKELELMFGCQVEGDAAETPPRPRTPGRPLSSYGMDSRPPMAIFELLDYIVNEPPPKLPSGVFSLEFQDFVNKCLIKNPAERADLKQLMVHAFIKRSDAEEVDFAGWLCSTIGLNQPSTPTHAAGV

[24] = test system: Mus musculus; assay: Anti-fibrotic activity in bleomycin-induced C57BL/6 mouse model of pulmonary fibrosis assessed as alleviation of neutrophil infiltration in lungs at 25 to 75 mg/kg, po administered twice a day for 3 weeks by H&E staining based analysis; format: functional, organism-based; conditions: dose 25-75 mg/kg

Structure (SMILES): CC(C)(C)CNc1ncc(Br)c(Nc2ccccc2C(N)=O)n1
- Cmax [1]: 453 ng/mL
- inhibition [2]: 18.7%
- Activity [3]: Active
- Vz [4]: 230.54 L/kg
- inhibition [5]: 17%
- MRT inf [6]: 2.85 h
- inhibition [7]: 71.1%
- inhibition [8]: Dose-Dependent Effect
- IC50 [9]: 33.2 nM
- Activity [10]: Active
- inhibition [11]: 36.1%
- half-life [12]: 4.22 h
- IC50 [13]: 113 nM
- Activity [14]: Active
- inhibition [15]: 60.3%
- inhibition [16]: 101%
- Tmax [17]: 1.38 h
- Vd [18]: 20.3 L/kg
- inhibition [19]: 4.96%
- inhibition [20]: 99.6%
- inhibition [21]: 93.8%
- half-life [22]: 2.09 h
- inhibition [23]: 2.35%
- Activity [24]: Active
